We go through one compound from article PMC3818959 (Journal of Ginseng Research, 2013).

In this assay the target is KCNQ1 (IKs channel, KCNQ1 + KCNE1) (Homo sapiens, UniProt P51787). The experiment in a line: cell-based.
KCNQ1 (IKs channel, KCNQ1 + KCNE1), sequence (P51787 whole entry): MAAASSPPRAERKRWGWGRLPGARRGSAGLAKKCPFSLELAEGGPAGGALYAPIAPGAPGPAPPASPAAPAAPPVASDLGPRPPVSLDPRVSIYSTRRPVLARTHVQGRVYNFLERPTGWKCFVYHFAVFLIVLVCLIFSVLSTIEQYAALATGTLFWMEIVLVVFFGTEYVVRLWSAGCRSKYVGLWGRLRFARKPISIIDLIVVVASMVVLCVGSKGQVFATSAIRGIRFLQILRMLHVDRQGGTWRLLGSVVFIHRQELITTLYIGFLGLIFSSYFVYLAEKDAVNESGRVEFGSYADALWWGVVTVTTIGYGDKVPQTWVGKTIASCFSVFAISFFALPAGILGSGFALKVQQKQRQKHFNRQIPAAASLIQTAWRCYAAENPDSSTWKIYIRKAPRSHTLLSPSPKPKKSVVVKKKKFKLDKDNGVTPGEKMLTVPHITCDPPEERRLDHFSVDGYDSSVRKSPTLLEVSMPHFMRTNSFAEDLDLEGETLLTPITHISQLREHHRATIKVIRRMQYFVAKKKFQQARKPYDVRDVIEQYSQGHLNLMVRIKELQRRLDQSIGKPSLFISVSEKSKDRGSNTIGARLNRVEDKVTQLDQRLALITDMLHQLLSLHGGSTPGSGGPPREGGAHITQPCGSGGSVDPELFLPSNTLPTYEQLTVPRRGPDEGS

Regarding `CC(C)=CCC[C@](C)(O)[C@H]1CC[C@]2(C)[C@@H]1[C@H](O)C[C@@H]1[C@@]3(C)CC[C@H](O)C(C)(C)[C@@H]3[C@@H](O)C[C@]12C` [PPT, protopanaxatriol], the half-maximal inhibitory concentration (IC50) (in general, the point on the concentration scale where inhibition reaches its midpoint) came out at 5.18 ± 0.13 µM.
